Assays:
[1] = test system: L-1210 Leukemia; test: L-1210 Leukemia (Table IX); assay type: in vivo, mice
Method: The sodium and ammonium salts of the present invention were tested against transplantable mouse tumors as indicated below.

In the case of `O=C1[O][Pt]2([NH]CC3(CCCCC3)C[NH]2)[O]C(=O)C1[O-].[Na+]` [Example 9, 2-Hydroxymalonato (1,1-diaminomethylcyclohexane)-platinum (II), sodium salt], the “Average Weight Change,g” value ([1]; 2 mg/kg/inj ip, qd 1→9) was -1.3 g, the “Effect MST % T/C” value ([1]; 2 mg/kg/inj ip, qd 1→9) was 131 % T/C and the “MST Days” value ([1]; 2 mg/kg/inj ip, qd 1→9) was 8.5 days. For the same compound, the “Average Weight Change,g” value ([1]; 4 mg/kg/inj ip, qd 1→9) was -1.2 g, the “Effect MST % T/C” value ([1]; 4 mg/kg/inj ip, qd 1→9) was 154 % T/C and the “MST Days” value ([1]; 4 mg/kg/inj ip, qd 1→9) was 10.0 days. For the same compound, the “Average Weight Change,g” value ([1]; 8 mg/kg/inj ip, qd 1→9) was -1.3 g, the “Effect MST % T/C” value ([1]; 8 mg/kg/inj ip, qd 1→9) was 238 % T/C and the “MST Days” value ([1]; 8 mg/kg/inj ip, qd 1→9) was 15.5 days. The “Average Weight Change,g” value ([1]; 12 mg/kg/inj ip, Day 1) was -1.8 g, the “Effect MST % T/C” value ([1]; 12 mg/kg/inj ip, Day 1) was 162 % T/C and the “MST Days” value ([1]; 12 mg/kg/inj ip, Day 1) was 10.5 days. For the same compound, the “Average Weight Change,g” value ([1]; 12 mg/kg/inj ip, qd 1→9) was -3.0 g, the “Effect MST % T/C” value ([1]; 12 mg/kg/inj ip, qd 1→9) was 292 % T/C and the “MST Days” value ([1]; 12 mg/kg/inj ip, qd 1→9) was 19.0 days. The “Average Weight Change,g” value ([1]; 24 mg/kg/inj ip, Day 1) was -3.7 g, the “Effect MST % T/C” value ([1]; 24 mg/kg/inj ip, Day 1) was 215 % T/C and the “MST Days” value ([1]; 24 mg/kg/inj ip, Day 1) was 14.0 days. The “Average Weight Change,g” value ([1]; 36 mg/kg/inj ip, Day 1) was -4.3 g, the “Effect MST % T/C” value ([1]; 36 mg/kg/inj ip, Day 1) was 223 % T/C and the “MST Days” value ([1]; 36 mg/kg/inj ip, Day 1) was 14.5 days. For the same compound, the “Average Weight Change,g” value ([1]; 48 mg/kg/inj ip, Day 1) was -3.6 g, the “Effect MST % T/C” value ([1]; 48 mg/kg/inj ip, Day 1) was 200 % T/C and the “MST Days” value ([1]; 48 mg/kg/inj ip, Day 1) was 13.0 days. For the same compound, the “maximum T/C” value ([1]; qd 1→9 (cis-DDP 2.4, parent 8 and 12, sodium salt 12 mg/kg/injection)) was 292%, the “maximum T/C” value ([1]; single ip injection at maximum tolerated dose (cis-DDP 8 mg/kg, the two others 36 mg/kg)) was 223% and the “Water-solubility at room temperature” value was at least 100 mg/mL.
